The text below walks through data of BindingDB's records for doi:10.7270/Q2ZC817P (The Scripps Research Institute Molecular Screening Center, 2007).

The target in one assay is Sphingosine 1-phosphate receptor 1 (Homo sapiens, UniProt P21453). The experiment in a line: potentiators of S1P1 agonist response, dose response, cell-based, potentiator mode, 60K MLSMR set (AID 466).
Sequence of Sphingosine 1-phosphate receptor 1 (P21453 whole entry): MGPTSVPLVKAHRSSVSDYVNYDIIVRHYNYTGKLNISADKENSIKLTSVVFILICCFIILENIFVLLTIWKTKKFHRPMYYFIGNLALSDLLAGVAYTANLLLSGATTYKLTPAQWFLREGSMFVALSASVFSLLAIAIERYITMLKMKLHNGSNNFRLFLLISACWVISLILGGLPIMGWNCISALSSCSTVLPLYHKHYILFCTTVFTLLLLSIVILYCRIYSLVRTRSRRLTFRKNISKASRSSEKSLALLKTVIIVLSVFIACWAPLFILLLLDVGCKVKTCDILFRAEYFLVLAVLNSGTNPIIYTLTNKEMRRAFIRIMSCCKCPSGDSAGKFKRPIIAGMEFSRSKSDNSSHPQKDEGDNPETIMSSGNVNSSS
Details: not given
`Cc1nn(-c2nc3ccccc3s2)c(N)c1-c1ccccc1` [1-(1,3-benzothiazol-2-yl)-3-methyl-4-phenyl-1H-pyrazol-5-amine]: the EC50 (commonly the concentration needed to bring the measured effect to its halfway point) is 0.385 µM.
`Cc1cc(N2CCN(c3nc4ccccc4s3)CC2)n2ncnc2n1` [2-[4-(5-methyl-[1,2,4]triazolo[1,5-a]pyrimidin-7-yl)-1-piperazinyl]-1,3-benzothiazole]: the EC50 is 6.29 µM.
For `Cc1ccc(-c2n[nH]c(=S)n2C)cc1`, the EC50 is more than 95 µM.
As for `CCc1c(C)nc2ncnn2c1NCCc1ccc(OC)cc1` [(6-Ethyl-5-methyl-[1,2,4]triazolo[1,5-a]pyrimidin-7-yl)-[2-(4-methoxy-phenyl)-ethyl]-amine], the EC50 was determined as 9.1 µM.
Still for that read-out and setting: the figure for `Cc1ccc2c(c1)N(CC(=O)Nc1ccc3c(c1)OCCO3)C(=O)CO2` [MLS000074457] is more than 95 µM; for `COc1ccc(CCNc2ncnc3c2oc2ccccc23)cc1OC` [MLS000041708] it is 0.601 µM; for `COc1cc2c(cc1OC)C(C)N(C(=O)c1cc3ccccc3o1)CC2` (stereo not given) [1-benzofuran-2-yl-(6,7-dimethoxy-1-methyl-3,4-dihydro-1H-isoquinolin-2-yl)methanone] it is more than 30 µM.
`COc1ccccc1N=C(N)Nc1nc(CSc2ccc(C)cc2)cc(=O)[nH]1` [1-(2-methoxyphenyl)-2-[6-[[(4-methylphenyl)thio]methyl]-4-oxo-1H-pyrimidin-2-yl]guanidine]: the concentration giving a half-maximal response (EC50) was 9.15 µM.
As to `O=C(CSc1nnc(Cn2nnc3ccccc32)o1)N(Cc1ccc(F)cc1)c1ccccc1` [2-(5-Benzotriazol-1-ylmethyl-[1,3,4]oxadiazol-2-ylsulfanyl)-N-(4-fluoro-benzyl)-N-phenyl-acetamide], the half-maximal effective concentration (EC50) turned out to be 4.86 µM.
On to `Cc1noc(C)c1S(=O)(=O)N(CC(=O)Nc1ccc2c(c1)OCO2)c1ccc(C(C)C)cc1` [MLS000117405], for which the EC50 was more than 95 µM.
Regarding `Cc1[nH]nc2c1C1(C(=O)N(Cc3ccc(Cl)cc3)c3ccccc31)C(C#N)C(=N)O2` (stereo not given) [6-amino-1'-[(4-chlorophenyl)methyl]-3-methyl-2'-oxo-5-spiro[2H-pyrano[2,3-c]pyrazole-4,3'-indole]carbonitrile], the EC50 was determined as 43.6 µM.
Still for that read-out and setting: as for `CCCCn1ccnc1C(=O)c1cccc(S(=O)(=O)N2c3ccccc3CC2C)c1` (stereo not given) [(1-butyl-2-imidazolyl)-[3-[(2-methyl-2,3-dihydroindol-1-yl)sulfonyl]phenyl]methanone], the figure is 9.16 µM; as for `COC(=O)Cc1sc(=O)[nH]c1Nc1ccccc1` [MLS000111966], more than 95 µM; as for `O=S(=O)(c1cccs1)N1CCN(CC(O)COc2cc(Cl)ccc2Cl)CC1` (stereo not given) [1-(2,5-dichlorophenoxy)-3-(4-thiophen-2-ylsulfonyl-1-piperazinyl)-2-propanol], 4.33 µM.
In the case of `O=C(Oc1cccc(C(=O)N2CCOCC2)c1)c1ccc(Br)cc1` [(3-morpholin-4-ylcarbonylphenyl) 4-bromanylbenzoate], the EC50 is more than 95 µM.
As to `CCOc1ccc(C(C)=O)cc1-n1c(O)c2c(c1O)C1C=CC2O1` [MLS000087730], the EC50 is 10.8 µM.
For `Cc1csc(SCC(=O)c2cc(C)n(Cc3cccs3)c2C)n1` [1-[2,5-dimethyl-1-(2-thenyl)pyrrol-3-yl]-2-[(4-methylthiazol-2-yl)thio]ethanone], the EC50 amounted to 7.01 µM.
As to `CCn1c(NC(=O)c2cccc(Cn3cc(Cl)cn3)c2)nc2ccccc21` [3-[(4-chloranylpyrazol-1-yl)methyl]-N-(1-ethylbenzimidazol-2-yl)benzamide], the 50% effective concentration (EC50) was more than 10 µM.
On to `CCc1cc2c(N3CCN(c4ccccc4)CC3)ncnc2s1` [6-ethyl-4-(4-phenyl-1-piperazinyl)thieno[2,3-d]pyrimidine], for which the EC50 came to 8.06 µM.
Same read-out and setting: as for `CCN(C1CCCCC1)S(=O)(=O)c1ccc(S(=O)(=O)NCc2ccncc2)cc1` [4-N-cyclohexyl-4-N-ethyl-1-N-(pyridin-4-ylmethyl)benzene-1,4-disulfonamide], the figure is 7.02 µM; as for `CCCC(=O)Nc1ccc(-c2nc3cc(C)ccc3o2)cc1` [MLS000061826], 6.36 µM.
With `COc1ccc(-c2noc(-c3ccccc3F)n2)cc1` [5-(2-fluorophenyl)-3-(4-methoxyphenyl)-1,2,4-oxadiazole], the EC50 was 6.17 µM.
For the compound `Cc1cc(C(=O)CSc2nnc(-c3ccncc3)n2-c2ccccc2)c(C)n1C` [2-[(4-phenyl-5-pyridin-4-yl-1,2,4-triazol-3-yl)sulfanyl]-1-(1,2,5-trimethylpyrrol-3-yl)ethanone], the half-maximal effective concentration (EC50) was determined as 2.23 µM.
The same measure, in the same setting: the figure for `COc1ccc(OC)c(-c2cc(C(=O)Nc3c(C)nn(Cc4ccc(Cl)cc4)c3C)no2)c1` [MLS000087191] is more than 10 µM.
Take `CCc1c(C)sc(NC(=O)c2cc(-c3ccco3)on2)c1C#N` [MLS000087225]: the EC50 was found to be 3.67 µM.
On to `COc1ccc(CNC(=O)c2cc3c(C)nc4ccccc4c3o2)c(OC)c1` [MLS000118441], for which the EC50 came out at 5.06 µM.
Turning to `Cc1ccc(-c2nc(CSCC(=O)N3CCN(c4ccccn4)CC3)c(C)o2)cc1` [2-[[5-methyl-2-(4-methylphenyl)-1,3-oxazol-4-yl]methylsulfanyl]-1-(4-pyridin-2-ylpiperazin-1-yl)ethanone], the EC50 was 5.99 µM.
Take `CCc1nnc(NC(=O)C2CCCCC2)s1` [MLS000104554]: the EC50 was more than 95 µM.
For the compound `CCn1c(SCC(=O)Nc2nc3ccc(C)cc3s2)nc2c(c1=O)SC(C)C2` (stereo not given) [2-[(3-ethyl-4-keto-6-methyl-6,7-dihydrothieno[3,2-d]pyrimidin-2-yl)thio]-N-(6-methyl-1,3-benzothiazol-2-yl)acetamide], the EC50 worked out at 7.72 µM.
Take `Cc1cc(C(=O)CSc2nnc(-c3cccs3)o2)c(C)n1-c1ccccc1` [1-(2,5-dimethyl-1-phenyl-3-pyrrolyl)-2-[(5-thiophen-2-yl-1,3,4-oxadiazol-2-yl)thio]ethanone]: the EC50 is 4.19 µM.
Consider `Cc1ccc(OCc2nc(-c3ccccc3)no2)c(C)c1` [5-[(2,4-dimethylphenoxy)methyl]-3-phenyl-1,2,4-oxadiazole], for which the EC50 worked out at 1.96 µM.
Consider `CCOC(=O)c1sc2nc(NC(=O)C3CCCCC3)sc2c1C` [2-(cyclohexanecarbonylamino)-6-methyl-thieno[2,3-d]thiazole-5-carboxylic acid ethyl ester], for which the EC50 was more than 30 µM.
As to `Cc1cccc(-n2ncc3c(N(C)C4CCCCC4)ncnc32)c1` [MLS000100814], the EC50 is more than 95 µM.
With `CCCN(C(=O)c1cccs1)c1nnc(-c2ccncc2)s1` [MLS000074637], the concentration giving a half-maximal response (EC50) came out at 2.96 µM.
As to `CCC1CCCCN1C(=O)CSc1nnc(-c2c[nH]c3ccccc23)o1` (stereo not given), the EC50 is 4.61 µM.
Consider `CC(C)Oc1cc(O)c2c(=O)c(-c3ccc(O)cc3)coc2c1` [3-(4-hydroxyphenyl)-5-oxidanyl-7-propan-2-yloxy-chromen-4-one], for which the half-maximal effective concentration (EC50) turned out to be 2.78 µM.
On the same count and under the same terms, the figure for `CC(C)Cc1cc(C(=O)Nc2sc3c(c2C#N)CCCC3)no1` [MLS000116410] is 9.59 µM; for `CCc1ccc(NC(=O)c2cc(-c3ccco3)on2)cc1` [MLS000087211] it is 4.44 µM; for `CCN(C(=O)C1CCCCC1)c1nnc(-c2cccnc2)s1` [Cyclohexanecarboxylic acid ethyl-(5-pyridin-3-yl-[1,3,4]thiadiazol-2-yl)-amide] it is 1.75 µM.
With `Cc1ccccc1-c1noc(-c2ccc(O)cc2)n1` [4-[3-(2-methylphenyl)-2H-1,2,4-oxadiazol-5-ylidene]-1-cyclohexa-2,5-dienone], the concentration for a half-maximal effect (EC50) turned out to be 8.25 µM.
Regarding `Cc1ccc(O)c(NC(=O)CCC2CCCCC2)c1` [3-cyclohexyl-N-(2-hydroxy-5-methyl-phenyl)propionamide], the EC50 was more than 95 µM.
`Cc1ccc(-c2nnc(SCc3ccccc3F)o2)cc1` [2-[(2-fluorobenzyl)thio]-5-(4-methylphenyl)-1,3,4-oxadiazole]: the EC50 turned out to be 1.14 µM.
Take `Cc1occc1C(=O)N1CCN(c2ccc(Cl)c(Cl)c2)CC1` [1-(3,4-dichlorophenyl)-4-(2-methyl-3-furoyl)piperazine]: the EC50 was 5.18 µM.

Still in this assay, the particulars now being: inactive by the depositor's call.
On to `c1ccc(N2CCN(Cc3ccnc4ccccc34)CC2)cc1` [4-[(4-phenyl-1-piperazinyl)methyl]quinoline], for which the EC50 was determined as 10.6 µM.
Regarding `O=C(c1cc(-c2ccccc2)on1)N1CCN(Cc2ccc3c(c2)OCO3)CC1` [(5-phenylisoxazol-3-yl)-(4-piperonylpiperazino)methanone], the EC50 was 58.7 µM.
On the same count and under the same terms, the figure for `CC1CCN(S(=O)(=O)c2ccc3c(c2)oc(=O)n3CC(=O)NCc2ccc3c(c2)OCO3)CC1` [2-[2-keto-6-(4-methylpiperidino)sulfonyl-1,3-benzoxazol-3-yl]-N-piperonyl-acetamide] is 14.6 µM; for `CC1=C(/C=C/C(C)=C/C=C/C(C)=C/C(=O)O)C(C)(C)CCC1` [ALL-TRANS-RETINOIC ACID] it is 34.1 µM.
In the case of `COc1cccc(-c2nnc3sc(C4CCCCC4)nn23)c1` [6-cyclohexyl-3-(3-methoxyphenyl)-[1,2,4]triazolo[3,4-b][1,3,4]thiadiazole], the EC50 stood at 30.6 µM.
On the same count and under the same terms, the figure for `O=C(CSCC(=O)N1CCCCC1)Nc1nc(-c2cccs2)cs1` [2-(2-oxidanylidene-2-piperidin-1-yl-ethyl)sulfanyl-N-(4-thiophen-2-yl-1,3-thiazol-2-yl)ethanamide] is 45.2 µM.
Still for that read-out and setting: the figure for `CCC(=O)Nc1ccc2c(c1)C(=O)N(C1CCCCC1)C2=O` [MLS000099936] is 58 µM.
Consider `Cc1nn(Cc2ccc(Cl)cc2)c(C)c1NC(=O)c1cc(-c2ccco2)on1` [MLS000087233], for which the 50% effective concentration (EC50) was determined as 14.1 µM.
As for `Cc1cc(C(=O)CN2C(=O)c3ccccc3C2=O)c(C)n1Cc1cccs1` [2-[2-[2,5-dimethyl-1-(2-thenyl)pyrrol-3-yl]-2-keto-ethyl]isoindoline-1,3-quinone], the EC50 is 21.4 µM.
Same read-out and setting: the figure for `Cc1onc(-c2ccccc2Cl)c1C(=O)Oc1cc(N)n(S(=O)(=O)c2ccc(F)cc2)n1` [3-(2-chlorophenyl)-5-methyl-4-isoxazolecarboxylic acid [5-amino-1-(4-fluorophenyl)sulfonyl-3-pyrazolyl] ester] is 20 µM; for `Cc1n[nH]c(C)c1N1C(=O)c2cccc3c(N4CCCCCC4)ccc(c23)C1=O` it is 12.5 µM; for `CN1CCN(C(=O)CSc2nc(-c3cccs3)cc(-c3cccs3)c2C#N)CC1` [2-[2-(4-methylpiperazin-1-yl)-2-oxidanylidene-ethyl]sulfanyl-4,6-dithiophen-2-yl-pyridine-3-carbonitrile] it is 12.9 µM.
